Measurements as given in PubChem BioAssay (NCI).
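Method: 48-hour compound exposure of cells in 96-well plates, five concentrations, linear interpolation of endpoints. The concentration for full growth arrest is given as TGI.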

Experiments:
Assay in all cases: inhibition of tumour cell growth, NCI panel, 48 h
OVCAR-3 ovarian = test system: OVCAR-3 ovarian
HOP-92 NSCLC = test system: HOP-92 NSCLC
U251 CNS = test system: U251 CNS
CAKI-1 renal = test system: CAKI-1 renal
OVCAR-5 ovarian = test system: OVCAR-5 ovarian
SK-MEL-2 melanoma = test system: SK-MEL-2 melanoma
MCF7 breast = test system: MCF7 breast
NCI/ADR-RES ovarian = test system: NCI/ADR-RES ovarian
MALME-3M melanoma = test system: MALME-3M melanoma
NCI-H460 lung = test system: NCI-H460 lung
SF-268 CNS = test system: SF-268 CNS
DU-145 prostate = test system: DU-145 prostate
CCRF-CEM leukemia = test system: CCRF-CEM leukemia
A498 renal = test system: A498 renal
SNB-19 CNS = test system: SNB-19 CNS
SF-295 CNS = test system: SF-295 CNS
UACC-257 melanoma = test system: UACC-257 melanoma
K-562 leukemia = test system: K-562 leukemia
HS 578T breast = test system: HS 578T breast
SW-620 colon = test system: SW-620 colon
PC-3 prostate = test system: PC-3 prostate
SK-OV-3 ovarian = test system: SK-OV-3 ovarian
SF-539 CNS = test system: SF-539 CNS
OVCAR-4 ovarian = test system: OVCAR-4 ovarian
COLO 205 colon = test system: COLO 205 colon
SK-MEL-28 melanoma = test system: SK-MEL-28 melanoma
A549 NSCLC = test system: A549 NSCLC
EKVX NSCLC = test system: EKVX NSCLC
RXF 393 renal = test system: RXF 393 renal
NCI-H226 lung = test system: NCI-H226 lung
MDA-N = test system: MDA-N
ACHN renal = test system: ACHN renal
T-47D breast = test system: T-47D breast
HT29 colon = test system: HT29 colon
RPMI-8226 leukemia = test system: RPMI-8226 leukemia
HOP-62 NSCLC = test system: HOP-62 NSCLC
KM12 colon = test system: KM12 colon
IGROV1 ovarian = test system: IGROV1 ovarian
HCT-116 colon = test system: HCT-116 colon
TK-10 renal = test system: TK-10 renal
NCI-H522 lung = test system: NCI-H522 lung
HCT-15 colon = test system: HCT-15 colon
SR leukemia = test system: SR leukemia
SNB-75 CNS = test system: SNB-75 CNS
SK-MEL-5 melanoma = test system: SK-MEL-5 melanoma
MDA-MB-231 breast = test system: MDA-MB-231 breast
UACC-62 melanoma = test system: UACC-62 melanoma
MOLT-4 leukemia = test system: MOLT-4 leukemia
LOX IMVI melanoma = test system: LOX IMVI melanoma
BT-549 breast = test system: BT-549 breast
786-0 renal = test system: 786-0 renal
UO-31 renal = test system: UO-31 renal
SN12C renal = test system: SN12C renal
MDA-MB-435 = test system: MDA-MB-435
M14 melanoma = test system: M14 melanoma
OVCAR-8 ovarian = test system: OVCAR-8 ovarian
HL-60(TB) leukemia = test system: HL-60(TB) leukemia
NCI-H23 lung = test system: NCI-H23 lung
HCC-2998 colon = test system: HCC-2998 colon

SMILES: CC1(C)CCCCCCCCCC2CC2CCC(C)(C)C1=O (stereo not given)
- TGI (OVCAR-3 ovarian): 25.9 µM
- TGI (HOP-92 NSCLC): 62.7 µM
- TGI (U251 CNS): 33 µM
- TGI (CAKI-1 renal): > 100 µM
- TGI (OVCAR-5 ovarian): 40 µM
- TGI (SK-MEL-2 melanoma): 34.5 µM
- TGI (MCF7 breast): 30 µM
- TGI (NCI/ADR-RES ovarian): 44.3 µM
- TGI (MALME-3M melanoma): 49 µM
- TGI (NCI-H460 lung): 46 µM
- TGI (SF-268 CNS): 43.1 µM
- TGI (DU-145 prostate): 40.9 µM
- TGI (CCRF-CEM leukemia): 53.3 µM
- TGI (A498 renal): > 100 µM
- TGI (SNB-19 CNS): 88.3 µM
- TGI (SF-295 CNS): 33.9 µM
- TGI (UACC-257 melanoma): 46.2 µM
- TGI (K-562 leukemia): 32.6 µM
- TGI (HS 578T breast): 82.3 µM
- TGI (SW-620 colon): > 100 µM
- TGI (PC-3 prostate): 70.9 µM
- TGI (SK-OV-3 ovarian): > 100 µM
- TGI (SF-539 CNS): 44.3 µM
- TGI (OVCAR-4 ovarian): > 100 µM
- TGI (COLO 205 colon): 32.7 µM
- TGI (SK-MEL-28 melanoma): 72.8 µM
- TGI (A549 NSCLC): 57.5 µM
- TGI (EKVX NSCLC): 39.3 µM
- TGI (RXF 393 renal): 29.3 µM
- TGI (NCI-H226 lung): 31.2 µM
- TGI (MDA-N): > 100 µM
- TGI (ACHN renal): 33.4 µM
- TGI (T-47D breast): 47.1 µM
- TGI (HT29 colon): 39.6 µM
- TGI (RPMI-8226 leukemia): 75.9 µM
- TGI (HOP-62 NSCLC): 46 µM
- TGI (KM12 colon): 34.9 µM
- TGI (IGROV1 ovarian): > 100 µM
- TGI (HCT-116 colon): 31.8 µM
- TGI (TK-10 renal): 46 µM
- TGI (NCI-H522 lung): 30 µM
- TGI (HCT-15 colon): 30.1 µM
- TGI (SR leukemia): 53.5 µM
- TGI (SNB-75 CNS): 71.1 µM
- TGI (SK-MEL-5 melanoma): 43.2 µM
- TGI (MDA-MB-231 breast): 43.9 µM
- TGI (UACC-62 melanoma): > 100 µM
- TGI (MOLT-4 leukemia): 80.1 µM
- TGI (LOX IMVI melanoma): 34.9 µM
- TGI (BT-549 breast): 87.4 µM
- TGI (786-0 renal): 31.5 µM
- TGI (UO-31 renal): 36.9 µM
- TGI (SN12C renal): 35.7 µM
- TGI (MDA-MB-435): 55.5 µM
- TGI (M14 melanoma): 48.6 µM
- TGI (OVCAR-8 ovarian): 74.5 µM
- TGI (HL-60(TB) leukemia): 49.1 µM
- TGI (NCI-H23 lung): > 100 µM

SMILES: Cn1c2cn[nH]c(=O)c2c2ccc3ccccc3c21
- TGI (OVCAR-3 ovarian): > 100 µM
- TGI (HOP-92 NSCLC): 60.8 µM
- TGI (U251 CNS): 47.1 µM
- TGI (CAKI-1 renal): > 100 µM
- TGI (OVCAR-5 ovarian): > 100 µM
- TGI (SK-MEL-2 melanoma): 46.7 µM
- TGI (MCF7 breast): > 100 µM
- TGI (NCI/ADR-RES ovarian): > 100 µM
- TGI (MALME-3M melanoma): > 100 µM
- TGI (NCI-H460 lung): > 100 µM
- TGI (SF-268 CNS): 97.2 µM
- TGI (DU-145 prostate): > 100 µM
- TGI (CCRF-CEM leukemia): > 100 µM
- TGI (A498 renal): 80 µM
- TGI (SNB-19 CNS): > 100 µM
- TGI (SF-295 CNS): 63.4 µM
- TGI (UACC-257 melanoma): > 100 µM
- TGI (K-562 leukemia): > 100 µM
- TGI (HS 578T breast): 53.1 µM
- TGI (SW-620 colon): > 100 µM
- TGI (PC-3 prostate): > 100 µM
- TGI (SK-OV-3 ovarian): > 100 µM
- TGI (SF-539 CNS): > 100 µM
- TGI (OVCAR-4 ovarian): > 100 µM
- TGI (COLO 205 colon): > 100 µM
- TGI (A549 NSCLC): > 100 µM
- TGI (EKVX NSCLC): 75.3 µM
- TGI (RXF 393 renal): 62.9 µM
- TGI (NCI-H226 lung): > 100 µM
- TGI (MDA-N): > 100 µM
- TGI (ACHN renal): 45.9 µM
- TGI (T-47D breast): > 100 µM
- TGI (HT29 colon): > 100 µM
- TGI (RPMI-8226 leukemia): > 100 µM
- TGI (HOP-62 NSCLC): 31.8 µM
- TGI (KM12 colon): > 100 µM
- TGI (IGROV1 ovarian): 32.2 µM
- TGI (HCT-116 colon): > 100 µM
- TGI (TK-10 renal): > 100 µM
- TGI (NCI-H522 lung): 59.5 µM
- TGI (HCT-15 colon): > 100 µM
- TGI (SR leukemia): > 100 µM
- TGI (SNB-75 CNS): 38.3 µM
- TGI (SK-MEL-5 melanoma): > 100 µM
- TGI (MDA-MB-231 breast): 57.6 µM
- TGI (UACC-62 melanoma): > 100 µM
- TGI (MOLT-4 leukemia): > 100 µM
- TGI (LOX IMVI melanoma): 53.8 µM
- TGI (BT-549 breast): > 100 µM
- TGI (786-0 renal): 42.1 µM
- TGI (UO-31 renal): 70.6 µM
- TGI (SN12C renal): > 100 µM
- TGI (MDA-MB-435): > 100 µM
- TGI (M14 melanoma): > 100 µM
- TGI (OVCAR-8 ovarian): > 100 µM
- TGI (HL-60(TB) leukemia): > 100 µM
- TGI (NCI-H23 lung): 67.2 µM

SMILES: COC(=O)/N=[N+](\[O-])C(c1ccccc1)c1ccccc1
- TGI (OVCAR-3 ovarian): > 100 µM
- TGI (U251 CNS): > 100 µM
- TGI (CAKI-1 renal): > 100 µM
- TGI (OVCAR-5 ovarian): > 100 µM
- TGI (SK-MEL-2 melanoma): > 100 µM
- TGI (MCF7 breast): > 100 µM
- TGI (NCI/ADR-RES ovarian): > 100 µM
- TGI (MALME-3M melanoma): > 100 µM
- TGI (NCI-H460 lung): > 100 µM
- TGI (SF-268 CNS): > 100 µM
- TGI (DU-145 prostate): > 100 µM
- TGI (CCRF-CEM leukemia): > 100 µM
- TGI (A498 renal): > 100 µM
- TGI (SNB-19 CNS): > 100 µM
- TGI (UACC-257 melanoma): > 100 µM
- TGI (K-562 leukemia): > 100 µM
- TGI (HS 578T breast): > 100 µM
- TGI (SW-620 colon): > 100 µM
- TGI (PC-3 prostate): > 100 µM
- TGI (SK-OV-3 ovarian): > 100 µM
- TGI (SF-539 CNS): > 100 µM
- TGI (OVCAR-4 ovarian): > 100 µM
- TGI (COLO 205 colon): > 100 µM
- TGI (SK-MEL-28 melanoma): > 100 µM
- TGI (A549 NSCLC): > 100 µM
- TGI (EKVX NSCLC): > 100 µM
- TGI (RXF 393 renal): > 100 µM
- TGI (NCI-H226 lung): > 100 µM
- TGI (MDA-N): > 100 µM
- TGI (HCC-2998 colon): > 100 µM
- TGI (T-47D breast): > 100 µM
- TGI (HT29 colon): > 100 µM
- TGI (RPMI-8226 leukemia): > 100 µM
- TGI (KM12 colon): > 100 µM
- TGI (IGROV1 ovarian): > 100 µM
- TGI (HCT-116 colon): > 100 µM
- TGI (TK-10 renal): > 100 µM
- TGI (NCI-H522 lung): > 100 µM
- TGI (HCT-15 colon): > 100 µM
- TGI (SR leukemia): > 100 µM
- TGI (SNB-75 CNS): > 100 µM
- TGI (SK-MEL-5 melanoma): > 100 µM
- TGI (MDA-MB-231 breast): > 100 µM
- TGI (UACC-62 melanoma): > 100 µM
- TGI (MOLT-4 leukemia): > 100 µM
- TGI (LOX IMVI melanoma): > 100 µM
- TGI (BT-549 breast): > 100 µM
- TGI (786-0 renal): > 100 µM
- TGI (UO-31 renal): 70.9 µM
- TGI (SN12C renal): > 100 µM
- TGI (MDA-MB-435): > 100 µM
- TGI (M14 melanoma): > 100 µM
- TGI (OVCAR-8 ovarian): > 100 µM
- TGI (HL-60(TB) leukemia): > 100 µM
- TGI (NCI-H23 lung): > 100 µM
